Experimental data published in PubChem BioAssay AID248 (DTP/NCI, 2004).
Values joined by “and” are separate entries in the source; they are usually repeats but may differ in a detail not shown here. Equal entries are not always repeated. Toxic doses and inconclusive results are not listed. Cut-off read from the data, not from the text of the source: active = T/C of 150% or more; inactive = T/C below 125%.

Tested on: L1210 leukemia ip in BDF1 mice, survival T/C
Test: NCI In Vivo Anticancer Drug Screen. Data for tumor model L1210 Leukemia (intraperitoneal) in B6D2F1 (BDF1) mice
Details: endpoint: mean survival time, higher = longer survival
Procedure, shortened: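 Transplantable tumor model; survival measured in treated vs vehicle control mice. Value = treated/control.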

[1] = dose: 100.0 mg/kg/injection, schedule: Q04DX003 (ip), vehicle: Klucel (hydroxypropylcellulose) (HPC)
[2] = dose: 200.0 mg/kg/injection, schedule: Q04DX003 (ip), vehicle: Klucel (hydroxypropylcellulose) (HPC)
[3] = dose: 400.0 mg/kg/injection, schedule: Q04DX003 (ip), vehicle: Klucel (hydroxypropylcellulose) (HPC)
[4] = dose: 100.0 mg/kg/injection, schedule: Q01DX001 (ip), vehicle: saline
[5] = dose: 200.0 mg/kg/injection, schedule: Q01DX001 (ip), vehicle: saline
[6] = dose: 25.0 mg/kg/injection, schedule: Q04DX002 (ip), vehicle: Klucel (hydroxypropylcellulose) (HPC)
[7] = dose: 200.0 mg/kg/injection, schedule: Q04DX002 (ip), vehicle: Klucel (hydroxypropylcellulose) (HPC)
[8] = dose: 400.0 mg/kg/injection, schedule: Q04DX002 (ip), vehicle: Klucel (hydroxypropylcellulose) (HPC)
[9] = dose: 100.0 mg/kg/injection, schedule: Q04DX002 (ip), vehicle: Klucel (hydroxypropylcellulose) (HPC)
[10] = dose: 100.0 mg/kg/injection, schedule: Q01DX009 (ip), vehicle: Klucel (hydroxypropylcellulose) (HPC)
[11] = dose: 200.0 mg/kg/injection, schedule: Q01DX009 (ip), vehicle: Klucel (hydroxypropylcellulose) (HPC)
[12] = dose: 400.0 mg/kg/injection, schedule: Q01DX009 (ip), vehicle: Klucel (hydroxypropylcellulose) (HPC)
[13] = dose: 50.0 mg/kg/injection, schedule: Q04DX002 (ip), vehicle: Klucel (hydroxypropylcellulose) (HPC)
[14] = dose: 100.0 mg/kg/injection, schedule: Q01DX001 (ip), vehicle: Klucel (hydroxypropylcellulose) (HPC)
[15] = dose: 200.0 mg/kg/injection, schedule: Q01DX001 (ip), vehicle: Klucel (hydroxypropylcellulose) (HPC)
[16] = dose: 400.0 mg/kg/injection, schedule: Q01DX001 (ip), vehicle: Klucel (hydroxypropylcellulose) (HPC)

Measured: T/C

NC1=NC(CCc2ccccc2)N(c2ccc(Cl)cc2)C(N)=N1 (stereo not drawn)
inactive: dose: 14.0 mg/kg/injection, schedule: Q01DX009 (ip), vehicle: steriod suspending solution 98 % of control | dose: 24.0 mg/kg/injection, schedule: Q01DX009 (ip), vehicle: steriod suspending solution 97 % of control | dose: 39.0 mg/kg/injection, schedule: Q01DX009 (ip), vehicle: steriod suspending solution 100 % of control | dose: 65.0 mg/kg/injection, schedule: Q01DX009 (ip), vehicle: steriod suspending solution 100 % of control

O=C1OC2(Cc3ccccc31)c1ccccc1-c1ccccc12
inactive: dose: 25.0 mg/kg/injection, schedule: Q04DX003 (ip), vehicle: Klucel (hydroxypropylcellulose) (HPC) 91 % of control | dose: 50.0 mg/kg/injection, schedule: Q04DX003 (ip), vehicle: Klucel (hydroxypropylcellulose) (HPC) 90 % of control | [1] 88 % of control | [2] 88 % of control | [3] 90 % of control

CCCCCCCCCCC1CCC2CCC3CCCC4CCC1C2C34 (stereo not drawn)
inactive: dose: 25.0 mg/kg/injection, schedule: Q04DX003 (ip), vehicle: acetone 96 % of control | dose: 50.0 mg/kg/injection, schedule: Q04DX003 (ip), vehicle: acetone 88 % of control | [4] 88 % of control | dose: 100.0 mg/kg/injection, schedule: Q04DX003 (ip), vehicle: acetone 86 % of control | [5] 90 % of control

NSc1ccccc1[N+](=O)[O-]
inactive: [1] 100 % of control | [2] 105 % of control | [3] 100 % of control

O=[N+]([O-])c1ccc(/C=N/c2oc(-c3ccc([N+](=O)[O-])cc3)nc2Sc2ccccc2)cc1
inactive: [6] 106 % of control | [7] 96 % of control and 97 % of control and 92 % of control | [8] 96 % of control

O=C/C=C/c1cccc([N+](=O)[O-])c1
inactive: dose: 50.0 mg/kg/injection, schedule: Q01DX001 (ip), vehicle: saline 102 % of control | [4] 107 % of control | [5] 111 % of control

O=CN1CCN(c2ccccc2)CC1
inactive: [9] 97 % of control | [7] 87 % of control | [8] 91 % of control

CCOC(=O)c1cnc(C)nc1NCc1ccco1
inactive: [1] 103 % of control | [2] 95 % of control | [3] 98 % of control

[O-]/[N+](=C\c1ccc(/C=[N+](\[O-])c2ccccc2)cc1)c1ccccc1
inactive: dose: 5.0 mg/kg/injection, schedule: Q01DX001 (ip), vehicle: saline 97 % of control | dose: 10.0 mg/kg/injection, schedule: Q01DX001 (ip), vehicle: saline 95 % of control | dose: 20.0 mg/kg/injection, schedule: Q01DX001 (ip), vehicle: saline 97 % of control | dose: 40.0 mg/kg/injection, schedule: Q01DX001 (ip), vehicle: saline 92 % of control | dose: 80.0 mg/kg/injection, schedule: Q01DX001 (ip), vehicle: saline 97 % of control

O=C1CCCCCCCCCC/C(=N/O)CCCO1
inactive: dose: 100.0 mg/kg/injection, schedule: Q01DX001 (ip), vehicle: saline with Tween-80 100 % of control | dose: 200.0 mg/kg/injection, schedule: Q01DX001 (ip), vehicle: saline with Tween-80 92 % of control | dose: 400.0 mg/kg/injection, schedule: Q01DX001 (ip), vehicle: saline with Tween-80 89 % of control

CCCCOP(=O)(NC12CC3CC(CC(C3)C1)C2)OCCCC
inactive: [10] 97 % of control | [1] 100 % of control | [11] 97 % of control | [2] 92 % of control | [12] 100 % of control | [3] 96 % of control

CC1OC2COC(C)OC2C(C(O)COC(=O)c2ccc([N+](=O)[O-])cc2)O1 (stereo not drawn)
inactive: dose: 100.0 mg/kg/injection, schedule: Q01DX009 (ip), vehicle: saline 98 % of control | dose: 100.0 mg/kg/injection, schedule: Q04DX003 (ip), vehicle: saline 110 % of control | dose: 200.0 mg/kg/injection, schedule: Q01DX009 (ip), vehicle: saline 98 % of control | dose: 200.0 mg/kg/injection, schedule: Q04DX003 (ip), vehicle: saline 104 % of control | dose: 400.0 mg/kg/injection, schedule: Q01DX009 (ip), vehicle: saline 103 % of control | dose: 400.0 mg/kg/injection, schedule: Q04DX003 (ip), vehicle: saline 101 % of control

C(#[C][Sn]([c]1ccccc1)([c]1ccccc1)[c]1ccccc1)c1ccccc1
inactive: [6] 97 % of control | [13] 90 % of control

NOCc1cc2c(cc1Cl)OCO2
inactive: [14] 94 % of control | [10] 94 % of control | [1] 90 % of control | [15] 88 % of control | [11] 92 % of control | [2] 96 % of control | [16] 100 % of control | [12] 86 % of control | [3] 96 % of control

COC1CCC(OC2CC(C3(C)CCC4(CC(O)C(C)C(C(C)/C=C(\C)C(=O)C(C)CC(C)C(=O)O)O4)O3)OC3(OC(C4OC(O)(CO)C(C)CC4C)CC3C)C2C)OC1C (stereo not drawn)
inactive: dose: 0.93 mg/kg/injection, schedule: Q01DX001 (ip), vehicle: saline 93 % of control | dose: 1.87 mg/kg/injection, schedule: Q01DX001 (ip), vehicle: saline 90 % of control | dose: 28.0 micrograms/kg/injection, schedule: Q01DX009 (ip), vehicle: saline 94 % of control | dose: 57.0 micrograms/kg/injection, schedule: Q01DX009 (ip), vehicle: saline 88 % of control | dose: 57.0 micrograms/kg/injection, schedule: Q04DX003 (ip), vehicle: saline 94 % of control | dose: 115.0 micrograms/kg/injection, schedule: Q01DX009 (ip), vehicle: saline 105 % of control | dose: 115.0 micrograms/kg/injection, schedule: Q04DX003 (ip), vehicle: saline 91 % of control | dose: 230.0 micrograms/kg/injection, schedule: Q04DX003 (ip), vehicle: saline 89 % of control

[O-][N+](=Nc1cccc(Cl)c1)c1cccc(Cl)c1
inactive: dose: 50.0 mg/kg/injection, schedule: Q01DX009 (ip), vehicle: saline with Tween-80 97 % of control | dose: 50.0 mg/kg/injection, schedule: Q04DX003 (ip), vehicle: saline with Tween-80 102 % of control | dose: 100.0 mg/kg/injection, schedule: Q01DX009 (ip), vehicle: saline with Tween-80 101 % of control | dose: 100.0 mg/kg/injection, schedule: Q04DX003 (ip), vehicle: saline with Tween-80 98 % of control | dose: 200.0 mg/kg/injection, schedule: Q01DX009 (ip), vehicle: saline with Tween-80 97 % of control | dose: 200.0 mg/kg/injection, schedule: Q04DX003 (ip), vehicle: saline with Tween-80 112 % of control

C=CCOC(=O)CCOCC
inactive: dose: 55.0 mg/kg/injection, schedule: Q01DX Z (ip), vehicle: methylcellulose (MC) 90 % of control | dose: 83.0 mg/kg/injection, schedule: Q01DX Z (ip), vehicle: methylcellulose (MC) 94 % of control | dose: 125.0 mg/kg/injection, schedule: Q01DX Z (ip), vehicle: methylcellulose (MC) 90 % of control

CCP(C)(C)=S
inactive: [6] 101 % of control | [13] 101 % of control | [9] 108 % of control

CC1(C)CC[N+]1(C)Cc1ccccc1 (stereo not drawn)
inactive: dose: 6.25 mg/kg/injection, schedule: Q01DX009 (ip), vehicle: saline 95 % of control | dose: 6.25 mg/kg/injection, schedule: Q04DX003 (ip), vehicle: saline 90 % of control | dose: 12.0 mg/kg/injection, schedule: Q01DX001 (ip), vehicle: saline 102 % of control | dose: 12.5 mg/kg/injection, schedule: Q01DX009 (ip), vehicle: saline 109 % of control | dose: 12.5 mg/kg/injection, schedule: Q04DX003 (ip), vehicle: saline 101 % of control | dose: 25.0 mg/kg/injection, schedule: Q01DX001 (ip), vehicle: saline 97 % of control | dose: 25.0 mg/kg/injection, schedule: Q01DX009 (ip), vehicle: saline 97 % of control | dose: 25.0 mg/kg/injection, schedule: Q04DX003 (ip), vehicle: saline 91 % of control

CCCCCCC1CCC(C(=O)O)CC1 (stereo not drawn)
inactive: [14] 96 % of control | [10] 98 % of control | [15] 97 % of control | [11] 98 % of control | [16] 97 % of control | [12] 89 % of control

CCC(=O)Nc1ccc(F)cc1
inactive: [14] 105 % of control | [10] 99 % of control | [1] 94 % of control | [15] 99 % of control | [11] 113 % of control | [2] 94 % of control | [16] 93 % of control | [12] 120 % of control | [3] 105 % of control
